One compound from patent publication US12150775B2, “Treatment of a disease of the gastrointestinal tract with an immunosuppressant” (BIORA THERAPEUTICS, INC., priority 2016, dated 2024) can be followed below.

The data set can be described thus: Tissue, plasma and GI content pharmacokinetics of tacrolimus, oral vs intra-cecal ingestible device delivery. In kind it is in vivo, Yorkshire-Cross farm swine. To be noted: swine; intra-cecally vs orally administered, 12 hours post-dose (FIG. 76). Here is the method:
No further randomization procedure was employed.
Animals in Group 1 received an ingestible device containing 0.8 mL of vehicle solution (80% alcohol, 20% HCO-60). Animals in Group 2 received orally […] liquid formulation of tacrolimus at 4 mg/0.8 mL per animal (Prograf. 5 mg/mL). Animals in Group 3 received intra-cecally an ingestible device containing tacrolimus at 1 mg in 0.8 mL per ingestible device. Animals in Group 4 received intra-cecally an ingestible device containing tacrolimus at 2 mg in 0.8 mL per ingestible device. Animals in Group 5 received intra-cecally an ingestible device containing tacrolimus at 4 mg in 0.8 mL per ingestible device. […]
Approximately 200˜400 mg of rectal content were collected, if available, with a fecal swab (Copan Diagnostics Nylon Flocked Dry Swabs, 502CS01). The fecal swab was pre-weighed and weighed after collection in the collection tube (Sterile Tube and Cap No Media, PFPM913S), and the sample weight was recorded. […]
For tissue necropsy, small intestine fluid and cecal fluid were collected separately from all the animals into two separate square plastic bottles, and stored at −20° C. The length and diameter of the cecum and the colon was measured from one animal in each group and recorded for reference. […] All samples were weighed, and the tissue sample weights were recorded. […]

For the compound `C=CC[C@@H]1/C=C(\C)C[C@H](C)C[C@H](OC)[C@H]2O[C@@](O)(C(=O)C(=O)N3CCCC[C@H]3C(=O)O[C@H](/C(C)=C/[C@@H]3CC[C@@H](O)[C@H](OC)C3)[C@H](C)[C@@H](O)CC1=O)[C@H](C)C[C@@H]2OC` [tacrolimus, Tacrolimus], the “mean concentration of tacrolimus in the cecum tissue” value is on record as “higher” and the “mean concentration of tacrolimus in the proximate colon tissue” value is “higher”.
